This data set in a line: Differential Scanning Calorimetry (DSC) comparison of crystal forms. Type of data set: physicochemical. Conditions: comparison of DSC curves (FIG. 6); heating rate 10° C./min, 20-200° C.; melting 34° C. higher than Form I and 16° C. higher than Form II. As to the method:
Differential Scanning Calorimetry (DSC) A. Equipment Instrument: TA Universal Analysis Q1000 Software: Universal Analysis 2000 B. Experimental Parameters Heating rate: 10° C./min Temperature range: 20-200° C. Sample size: 2.00-5.00 mg Purge gas: Nitrogen, 40 ml/min Crucible: Hermetic pinholed
A general note: In DSC, transitions show as peaks or steps in heat flow.

Data on one compound can be found in patent US8569371B2, “Crystal forms of O-desmethylvenlafaxine fumarate” (Pliva Hrvatska D.O.O., priority 2010, dated 2013).

Turning to `CN(C)CC(c1ccc(O)cc1)C1(O)CCCCC1.O=C(O)/C=C/C(=O)O` (stereo not shown) [O-Desvenlafaxine fumarate Form N, O-desmethylvenlafaxine fumarate], the “thermal stability as compared to forms I and II” value is recorded as “enhanced thermal stability”.
